Assay results reported in patent US8895520B2, “Method for treating a human patent suffering from Myeloid Neoplasias using 5-aminoimidazole-4-carboxamide” (Universite Nice Sophia Antipolis, priority 2011, dated 2014).

Columns and labels:
AZA-S SKM1 cells [1] = experiment: XTT cell metabolism assay in AZA-S SKM1 cells; format: cell-based, human; conditions: for cell metabolism (XTT) / inhibitory effect on cell metabolism in presence of Z-VAD-fmk: 24 h; for inhibitory effect on cell metabolism in presence of Z-VAD-fmk: 50 μM Z-VAD-fmk
Method: (§1) FIGS. 6 and 7 illustrate respectively the efficiency of acadesine in SKM1-S and SKM1-R cells. In FIG. 6, AZA-S SKM1 cells were incubated for 24 h with increased doses of ACA (acadesine). In FIG. 7, AZA-R SKM1 cells were incubated for 24 h with increased doses of ACA. Cell metabolism was then assessed by using the XTT assay in both assays. Results represent the mean+/−SEM of three independent experiments made in quadruplicates.
FIGS. 10 and 11 illustrate the efficacy of acadesine in AZA-S and AZA-R cells. […] For this experiment, AZA-S SKM1 cells were incubated for 24 h with 1 μM Azacitidine or 1 mM Acadesine in either the presence or the absence of 50 μM Z-VAD-fmk. Cell metabolism was assessed using the XTT assay. Results represent the mean+/−SEM of three independent experiments achieved in quadruplicates. […] For this experiment, AZA-R SKM1 cells were incubated for 24 h with 1 μM Azacitidine or 1 mM Acadesine in either the presence or the absence of 50 μM Z-VAD-fmk. Cell metabolism was assessed using the XTT assay. Results represent the mean+/−SEM of three independent experiments achieved in quadruplicates.
For the cell metabolism assessment, 15×10^3 cells were incubated in a 96-well plate for different times with various concentrations of Azacitidine in a final volume of 100 μL. After 16, 24 or 48 h, 50 μL of XTT reagent was added to each well. The absorbance of the formazan product, reflecting cell metabolism, was measured at […]. Each assay was performed in quadruplicate.
The cell metabolism assessment was made in an identical manner as described in example 3.

AZA-R SKM1 cells [2] = experiment: cells; format: cell-based; conditions: Homo sapiens
Method: as §1
FIGS. 10 and 11 illustrate the efficacy of acadesine in AZA-S and AZA-R cells. […] For this experiment, AZA-S SKM1 cells were incubated for 24 h with 1 μM Azacitidine or 1 mM Acadesine in either the presence or the absence of 50 μM Z-VAD-fmk. Cell metabolism was assessed using the XTT assay. Results represent the mean+/−SEM of three independent experiments achieved in quadruplicates. […] For this experiment, AZA-R SKM1 cells were incubated for 24 h with 1 μM Azacitidine or 1 mM Acadesine in either the presence or the absence of 50 μM Z-VAD-fmk. Cell metabolism was assessed using the XTT assay. Results represent the mean+/−SEM of three independent experiments achieved in quadruplicates. […]
For the cell metabolism assessment, 15×10^3 cells were incubated in a 96-well plate for different times with various concentrations of Azacitidine in a final volume of 100 μL. […] The absorbance of the formazan product, reflecting cell metabolism, was measured at 490 nM. […]

AZA-S SKM1 cells [3] = experiment: Caspase 3 / caspase 9 activity assay in AZA-S SKM1 cells; format: cell-based, human
Method: (§2) FIG. 1 illustrates AZA-induced apoptosis in AZA-SKM1 cells as assessed by caspase 3 assay. In this figure, cells were incubated for different times with 1 μM Azacitidine. Caspase activities were determined in quadruplicates using 0.2 mM Ac-DEVD-AMC as substrate.
(§3) FIG. 2 illustrates AZA-induced apoptosis in AZA-SKM1 cells as assessed by caspase 9 assay. In this figure, cells were incubated for different times with 1 μM Azacitidine. Caspase activities were determined in quadruplicates using 0.2 mM Ac-LEHD-AMC as substrate.
(§4) In this experiment, cells were incubated for 24 h with 1 μM Azacitidine or 1 mM ACA. Cell extracts were then prepared and caspase activities were determined in quadruplicates using 0.2 mM Ac-DEVD-AMC as substrate.
(§5) For these caspase assays, 10^6 cells/mL were incubated for different times at 37° C. with 1 μM Azacitidine. After stimulation, cells were lysed for 30 min at 4° C. Cellular extracts were incubated in 96-well plates with either Ac-DEVD-AMC (caspase 3) or Ac-LEHD-AMC (caspase 9) as substrates. Each experiment was performed in quadruplicates and repeated at least three times.

AZA-R SKM1 cells [4] = experiment: Caspase 3 / caspase 9 activity assay in AZA-R SKM1 cells; format: cell-based, human
Method: as §2, §3, §4, §5

AZA-R SKM1 cells [5] = experiment: Cathepsin B activity assay in AZA-R SKM1 cells; format: cell-based, human
Method: (§6) For this experiment cells were incubated for increasing times with 1 μM AZA. Cell extracts were prepared and Cathepsin B activity determined in quadruplicatesusing Z-RR-AMC as substrates. […] In this experiment cells were incubated for 24 h with 1 μM Azacitidine or 1 mM ACA. Cell extracts were prepared and Cathepsin B activity was determined in quadruplicates using Z-RR-AMC as substrate. For these Cathepsin B assays, 10^6 cells/mL were incubated for different times at 37° C. with 1 μM Azacitine. After stimulation, cells were lysed for 30 min at 4° C. Cellular extracts were incubated in 96-well plates with […] (Cathepsin B) as substrate. This experiment was performed in quadruplicates and repeated at least three times.

[6] = tested on: bone marrow cells of 7 AZA-sensitive patients; experiment: XTT cell metabolism assay on bone marrow cells of AZA-sensitive patients; format: cell-based, human; conditions: bone marrow cells of AZA-sensitive patients (n=7), 1 mM Acadesine
Method: For this experiment, bone marrow cells of 7 AZA-sensitive patients were treated with 1 μM Azacitidine or 1 mM Acadesine. Cell metabolism was assessed using the XTT assay. Results represent the mean+/−SEM of three independent experiments achieved in quadruplicates.
(§7) In the following examples, bone marrow samples were collected from 15 patients treated by Azacitidine. […] The diagnosis of MDS or AML was based on standard WHO criteria (Vardiman et al., Blood 2009). Patients were to receive Azacitidine at the FDA/EMEA approved schedule (75 mg/m^2/d, 7 d/4 weeks). Patients having received one or more than one cycle of Azacitidine and who had bone marrow evaluation after at least four cycles, or who died or progressed before completion of four cycles were considered evaluable (the last two groups were considered as treatment failures). Responses were scored according to IWG 2006 criteria for MDS and to Cheson et al. (JCO 2003) for AML.
(§8) Acadesine efficiency was next investigated on fifteen primary cell samples from MDS or AML patients treated or not by AZA. Samples from seven Azacitidine sensitive patients (FIG. 12) and eight samples from Azacitidine resistant patients were included in this experiment and analyzed by the XTT assay (FIG. 13). As previously described for AZA-R SKM1 cells, Acadesine was more efficient to kill cells from Azacitidine resistant patients.

[7] = tested on: bone marrow cells of 8 AZA-resistant patients; experiment: XTT cell metabolism assay on bone marrow cells of AZA-resistant patients; format: cell-based, human; conditions: 1 mM Acadesine
Method: For this experiment, bone marrow cells of 8 AZA-resistant patients were treated with 1 μM Azacitidine or 1 mM Acadesine. Cell metabolism was assessed using the XTT assay. Results represent the mean+/−SEM of three independent experiments achieved in quadruplicates.
as §7, §8

[8] = tested on: AZA-resistant patient bone marrow cells; experiment: LC3 I / LC3 II western blot on AZA-resistant patient bone marrow cells; format: cell-based, human; conditions: one Azacitidine resistant patient, 1 mM Acadesine, 24 h
Method: In this experiment LC3 I and LC3 II expression was assessed by Western-Blot on cell extracts prepared from AZA-resistant patient bone marrow cells incubated for 24 h with 1 mM Acadesine.
as §8

AZA-R SKM1 cells [9] = experiment: PARP cleavage by western blot in AZA-R SKM1 cells; format: cell-based, human; conditions: 1 μM Azacitidine, 16 h
Method: In this experiment, PARP cleavage was assessed by western-blot on cell extracts prepared from AZA-S and AZA-R cells incubated for 16 h with 1 μM Azacitidine. For the Western Blot analysis, cells were first stimulated by 1 μM Azacitidine for the indicated times, then cells were harvested and lysed in buffer containing 1% Triton X-100 and supplemented with protease and phosphatase inhibitors (Roche Diagnostics) as previously described. Lysates were pelleted, and 50 μg of protein were analyzed by SDS-PAGE.

AZA-S SKM1 cells [10] = experiment: Autophagy western blot (LC3-I/LC3-II, P-S6) in AZA-S SKM1 cells; format: cell-based, human; conditions: 1 μM AZA
Method: (§9) FIG. 4 illustrates increased basal autophagy and decreased AZA-mediated autophagy in AZA-R cells. In this experiment, cells were incubated for increasing times with 1 μM AZA. LC3-I and LC3-II, S6 ribosomal protein (P-S6), and its phosphorylated form were visualized by western blot.
(§10) For the Western Blot analysis, cells were first stimulated by 1 μM Azacitidine for the indicated times, then cells were harvested and lysed in buffer containing 1% Triton X-100 and supplemented with protease and phosphatase inhibitors (Roche Diagnostics) as previously described. Lysates were pelleted, and 50 μg of protein were analyzed by SDS-PAGE.

AZA-R SKM1 cells [11] = experiment: Autophagy western blot (LC3-I/LC3-II, P-S6) in AZA-R SKM1 cells; format: cell-based, human; conditions: 1 μM AZA
Method: as §9, §10

AZA-S SKM1 cells [12] = experiment: Cathepsin B activity assay in AZA-S SKM1 cells; format: cell-based, human; conditions: Azacitidine
Method: as §6

[13] = tested on: high-risk Myelodysplasic syndrome (MDS) or acute myeloid leukemia (AML) patients; conditions: cited from earlier work

With `NC(=O)c1ncn([C@@H]2O[C@H](CO)[C@@H](O)[C@H]2O)c1N` [Acadesine, acadesine] the “cell metabolism (XTT)” value (AZA-S SKM1 cells [1]; 1 mM Acadesine) was “drastically inhibited cell metabolism”, the “inhibitory effect on cell metabolism in presence of Z-VAD-fmk” value (AZA-S SKM1 cells [1]; 1 mM Acadesine) was “independently of caspases” and the IC50 (AZA-S SKM1 cells [1]; Homo sapiens, SKM-1, 24 h, XTT assay, read-out: half-maximal inhibition of cell metabolism) was 250 µM. For the same molecule, the cytotoxicity at 1000 µM (AZA-R SKM1 cells [2]; SKM-1, 24 h, read-out: reduction of cell viability) was 60%, the IC50 (AZA-R SKM1 cells [2]; SKM-1, AZA-R SKM1 cells, 24 h, XTT assay, read-out: half-maximal inhibition of cell metabolism) was 250 µM and the “apoptosis (caspase activity, Ac-DEVD-AMC)” value (AZA-S SKM1 cells [3]; 1 mM ACA, 24 h) was “does not induce apoptosis”. For the same molecule, the “apoptosis (caspase activity, Ac-DEVD-AMC)” value (AZA-R SKM1 cells [4]; 1 mM ACA, 24 h) was “does not induce apoptosis”, the “Cathepsin B activity” value (AZA-R SKM1 cells [5]; 1 mM ACA, 24 h) was “increase of Cathepsin B activity” and the “cell metabolism (XTT)” value [6] was “inhibits cell metabolism”. For the same molecule, the “cell metabolism (XTT)” value [7] was “strongly inhibits cell metabolism” and the “induction of autophagy (conversion of LC3-I into LC3-II)” value [8] was “induction of autophagy by Acadesine was confirmed”.
In the case of `Nc1ncn([C@@H]2O[C@H](CO)[C@@H](O)[C@H]2O)c(=O)n1` [Azacitidine], the “cell metabolism (XTT)” value (AZA-S SKM1 cells [1]; 1 μM Azacitidine) is reported as “efficiently reduced cell metabolism”, the “inhibitory effect on cell metabolism in presence of Z-VAD-fmk” value (AZA-S SKM1 cells [1]; 1 μM Azacitidine) is reported as “reverted by Z-VAD-fmk” and the “caspase 3 activation (hydrolysis of Ac-DEVD-AMC)” value (AZA-S SKM1 cells [3]; 1 μM Azacitidine, 8-16 h) is reported as “induced”. The “caspase 9 activation (hydrolysis of LEHD-AMC)” value (AZA-S SKM1 cells [3]; 1 μM Azacitidine, 8-16 h) was “induced”, the “caspase 3 activity (Ac-DEVD-AMC)” value (AZA-S SKM1 cells [3]; 1 μM Azacitidine, 24 h) was “induced caspase 3 activity” and the “caspase 3 activation (hydrolysis of Ac-DEVD-AMC)” value (AZA-R SKM1 cells [4]; 1 μM Azacitidine) was “no caspase activities was induced”. The “caspase 9 activation (hydrolysis of LEHD-AMC)” value (AZA-R SKM1 cells [4]; 1 μM Azacitidine) was “no caspase activities was induced”, the “caspase 3 activity (Ac-DEVD-AMC)” value (AZA-R SKM1 cells [4]; 1 μM Azacitidine, 24 h) was “no increase” and the “cleavage of PARP (western blot)” value (AZA-R SKM1 cells [9]) was “no AZA-mediated cleavage of PARP was detected”. For the same molecule, the “ribosomal protein S6 phosphorylation (index of mTOR inhibition)” value (AZA-S SKM1 cells [10]) was “inhibition of ribosomal protein S6 phosphorylation”, the “LC3-II accumulation (autophagy)” value (AZA-S SKM1 cells [10]; increasing times) was “time-dependent accumulation of LC3-II” and the “ribosomal protein S6 phosphorylation (index of mTOR inhibition)” value (AZA-R SKM1 cells [11]) was “inhibition of ribosomal protein S6 phosphorylation”. For the same molecule, the “LC3-II accumulation (autophagy)” value (AZA-R SKM1 cells [11]; increasing times) was “not further stimulated”, the “Cathepsin B activity” value (AZA-S SKM1 cells [12]) was “induces” and the “Cathepsin B activity” value (AZA-R SKM1 cells [5]; 1 μM AZA, increasing times) was “increased”. For the same molecule, the “proportion of patients refractory” value [13] was “approximately 40%”.
